Results from paper PMC9014412 (Journal of medicinal chemistry, 2022).
Where two headings read alike, the source gives them in different places.

Tests used:
HCT116 cells [1] = experiment: CellTiter-Glo 2.0 cell viability assay; format: cell-based, human; details: Homo sapiens, HCT-116, 48 h, 48 h
Protocol: CellTiter-Glo 2.0 Reagent (Promega UK Ltd, G9242) was equilibrated to room temperature and added to the wells in a ratio of 1 volume reagent:5 volumes medium. Background luminescence was determined using medium alone plus reagent. The plates were shaken on an orbital shaker for 2 min to induce cell lysis and then incubated in the dark at room temperature for 10 min to stabilize the luminescent signal. Luminescence was captured on a CLARIOstar plate reader (BMG Labtech Ltd, UK) at 22 °C to give relative luminescence units and analyzed using BMG Labtech software. EC50 values were calculated by nonlinear regression (Hill plot) and log (inhibitor) versus response—variable slopes (four parameters) using GraphPad Prism 9 software. Each compound dose response was repeated as four independent biological replicates (n = 4).

HCT116 cells [2] = experiment: RNA-seq differential gene expression; format: cell-based, human; details: 10 μM, 24 h, p-adjusted < 0.01, log2 fold change > 1
Protocol: RNA-seq analysis was performed in HCT116 cells treated with PROTACs (JPS004, JPS014, JPS016, JPS035, and JPS036) for 24 h at 10 μM concentration. Total RNA was isolated using a Tri-reagent RNA miniprep kit (Zymogen; R2053), before RNA integrity, size, and purity were assessed using an Agilent Bioanalyzer. Library preparation and sequencing were performed by Novogene, using a NovaSeq 6000 PE150 platform at a read depth of 20 million. For bioinformatics analysis, see the Supporting Information. RNA-seq data from the study was deposited at the GEO database (GSE197985).
3. Apoptosis Flow Cytometry Assay
Figure S9. Apoptosis flow cytometry assay with 2.5 µM and 10 µM treatments of JPS016 and JPS016NC at 24 and 48 hours. Error bars represent the average of three independent biological replicates.
µM µM µM 5 µM µM µM µM µM µM µM
4. RNA Seq – Bioinformatics Analysis
Paired-end reads were aligned using HISAT2 (v2.2.1) and mapped to the HISAT2 GRCh38_tran index build.3 Quality control was performed on raw and aligned data using FASTQC (v0.11.9) and summarised using MultiQC (v1.11).4,5 The resulting SAM files were subsequently sorted and converted to the BAM format before indexing with SAMtools (v 1.12).6 Reads were then counted across the exons of each gene and gene loci annotated using command-line program LiBiNorm (v2.4); run in HT-Seq compatibility mode (-z) and provided with the ‘Homosapiens.GRCh38.104’ GTF file obtained from Ensembl. LiBiNorm was run using the following parameters: LiBiNorm count -z -r pos -i gene_name -s reverse <BAM file> Homo_sapiens.GRCh38.104.gtf <OUTPUT file>.7 Default normalisation of expression values and differential gene analysis was then carried out using the R package DESeq2.8 Significance thresholds were set as a p-adjusted value < 0.01 and a fold change > 2 (log2 fold change > 1) and implemented for down-stream analysis, with all plots produced in R. Gene ontology (GO) analysis was carried out using the Bioconductor package topGO using the human genome-wide annotation package to map gene identifiers to the relevant org.Hs.eg.db […]

H3K56ac = experiment: Histone H3 Lys 56 acetylation (H3K56ac) western blotting; format: cell-based, human; details: HCT116 cells, 24 h, screen at 0.1, 1, 10 μM; relative to DMSO, CI-994 and 1 at 10 μM
Text: (§1) Supporting Information: Biology
(§2) Representative blots of two independent biological replicates.

LSD1 = LSD1 protein levels by western blotting; format: cell-based, human; details: HCT116 cells, after 48 h
Protocol: as §1, §2
(§3) Figure S6. Representative Western blot of HDAC1/2/3 levels after 24 hours and 48 hours with 1
(§4) (JPS004), 7 (JPS014) and 9 (JPS016), and bar graph representation of HDAC1-3, LSD1 and Sin3a
(§5) protein levels after 24 hours and 48 hours as the average of three independent biological replicates.
(§6) (also on this page, place not known: HDAC1 24hHDAC2 24hHDAC3 24hHDAC1 48hHDAC2 48hHDAC3 %Protein Levels Remaining (Relative to DMSO) %Protein Levels Remaining (Relative to DMSO))

SIN3A = SIN3A protein levels by western blotting; format: cell-based, human; details: HCT116 cells, 10 μM, after 24 h
Protocol: as §1, §2, §3, §4, §5, §6

HCT116 cells [3] = experiment: Apoptosis flow cytometry assay (sub-G1 population); format: cell-based, human; details: 10 μM
Protocol: HCT116 cells were seeded (5 × 10^5 cells/plate) into 6 cm tissue culture plates for 24 h and then treated with 10 μM compounds (with 0.1% DMSO vehicle) or 0.1% DMSO control in fresh medium (5 mL total). The cells were then exposed to the compounds (10 μM) for 24 or 48 h. To harvest the cells, the medium was transferred from each sample plate to 15 mL centrifuge tubes. Each well was washed with 1 mL of phosphate-buffered saline (PBS) and the PBS was transferred to the corresponding 15 mL centrifuge tube. The plates were trypsinized, 2 mL of medium was added, and the cells and medium were transferred to the corresponding 15 mL centrifuge tubes. The harvested cells were pelleted by centrifugation (200g, 5 min, 4 °C), washed with 1 mL PBS, and then pelleted again by centrifugation (200g, 5 min, 4 °C). The supernatant was discarded, and the pellets resuspended in 1 mL of 70% ethanol (ice-cold) to fix the cells. Samples were stored at 4 °C and analyzed within two weeks. PBS (1 mL) was added to each sample tube containing cells fixed in 70% ethanol. The cells were pelleted by centrifugation (200g, 5 min, 4 °C), and the PBS wash was repeated. The supernatant was discarded, and the pellet was resuspended in 50 μL of RNase A (1 μg/mL, Thermo Scientific, EN0531) and left at room temperature for 10 min to digest contaminating RNA. A total of 500 μL of PI stain (50 μg/mL, Invitrogen, P3566) was added to each tube, and the tubes were incubated in the dark, at room temperature, for 30 min. Results were acquired on a BD FACSCanto II flow cytometer and analyzed using BD FACSdiva software. Sub-G1 population was calculated as a percentage of total cell population. Two independent biological replicates were performed.

HDAC2 = HDAC2 (Homo sapiens, UniProt Q92769); experiment: HDAC2 degradation by quantitative western blotting in HCT116 cells; design: Dmax: dose or concentration left out as unconfirmed
Chain of HDAC2 (Q92769 whole entry): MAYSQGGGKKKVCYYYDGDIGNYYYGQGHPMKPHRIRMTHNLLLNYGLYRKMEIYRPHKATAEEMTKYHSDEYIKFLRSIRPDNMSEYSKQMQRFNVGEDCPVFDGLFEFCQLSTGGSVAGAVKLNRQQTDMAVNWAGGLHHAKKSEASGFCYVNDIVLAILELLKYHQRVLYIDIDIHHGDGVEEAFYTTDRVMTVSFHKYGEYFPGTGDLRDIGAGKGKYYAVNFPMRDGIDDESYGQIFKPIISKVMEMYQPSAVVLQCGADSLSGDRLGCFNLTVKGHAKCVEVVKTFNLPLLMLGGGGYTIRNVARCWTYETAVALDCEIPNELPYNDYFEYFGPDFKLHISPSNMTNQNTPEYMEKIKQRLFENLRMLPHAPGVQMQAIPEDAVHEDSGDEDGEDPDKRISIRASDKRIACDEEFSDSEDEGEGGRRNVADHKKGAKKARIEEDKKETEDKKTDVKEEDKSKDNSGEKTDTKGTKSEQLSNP
Protocol: Initially, each PROTAC was tested at 0.1, 1, and 10 μM in HCT116 cells for 24 h; then, cell extracts were prepared and evaluated for HDAC1/2 and 3 degradation by quantitative western blotting.
This cell line was incubated at 37 °C with 5% CO2.
HCT116 cells were seeded into 6-well plates (4 × 10^5 cells/well for 24 h, 2 × 10^5 cells/well for 48 h) for 24 h and then treated with DMSO or compounds at the indicated concentrations in fresh medium (5 mL total). After desired treatment time, the cells were harvested and then lysed in lysis buffer (50 mM Tris-HCl, 150 mM NaCl, 0.5% NP-40, 0.5% Triton X-100) supplemented with a protease inhibitor (Sigma, P8340). The suspension was incubated on ice for 30 min and centrifuged (18,000 rcf, 15 min, 4 °C); then, the supernatant was collected, and protein concentrations were quantified via Bradford Assay using Protein Assay Dye Reagent Concentrate (BIO-RAD). […] PageRuler Plus Prestained Ladder was used for size standards. After gel electrophoresis at 140 V for 90 min, the separated proteins were transferred onto a nitrocellulose membrane at 30 V for 60 min. The membranes were probed with primary antibodies (see the Supporting Information) for 60−90 min. Blots were developed with complimentary IRDye-conjugated secondary antibodies, and the bands were visualized using an Odyssey infrared imaging system. Image processing and band intensity quantification were performed using Image Studio Lite.

`Cc1ncsc1-c1ccc(CNC(=O)[C@@H]2C[C@@H](O)CN2C(=O)[C@@H](NC(=O)COCCCCCCCCCOCC(=O)Nc2ccc(C(=O)Nc3ccccc3N)cc2)C(C)(C)C)cc1` [Compound 9, (2S,4R)-1-((S)-2-(2-((9-(2-((4-((2-Aminophenyl)carbamoyl)-phenyl)amino)-2-oxoethoxy)nonyl)oxy)acetamido)-3,3-dimethylbutanoyl)-4-hydroxy-N-(4-(4-methylthiazol-5-yl)benzyl)-pyrrolidine-2-carboxamide] was tested, and the EC50 (HCT116 cells [1]) was 5.2 ± 0.6 µM, the “Number of downregulated DEGs” value (HCT116 cells [2]) was 1477 and the “Number of upregulated DEGs” value (HCT116 cells [2]) was 2464. The “H3K56ac levels (in words)” value (H3K56ac) was “increased H3K56ac levels to the same levels as CI-994”, the LSD1 levels (LSD1) was “approximately 40 % of controls” and the “SIN3A levels (abundance)” value (SIN3A) was 60 % abundance. The “Percentage of cells in sub-G1 phase (in words)” value (HCT116 cells [3]; after 24 h) was “highest percentage of cells in the sub-G1 phase”, the “Percentage of cells in sub-G1 phase (in words)” value (HCT116 cells [3]; after 48 h) was “highest percentage of cells in the sub-G1 phase” and the “HDAC2 degradation in initial screen (in words)” value (HDAC2; HCT116 cells, 24 h, 0.1, 1 and 10 μM, compared with 1 at 10 μM) was “marginally increased compared to 1 at 10 μM”. The Dmax (HDAC2; HCT-116, read-out: Dmax HDAC2) was 45% and the Dmax (HDAC2; HCT-116, read-out: Dmax HDAC2 in time course) was 51%.
